Target: T1, Bma-GAR-3 (Brugia malayi, UniProt A0A4E9FL79)
T1 construct: full-length synthesized ORF; transgenic C. elegans gar-3(gk305) knockout, expressed in ASH neuron (sra-6p), body wall muscle (myo-3p) or pharynx (myo-2p)
Test: ring aversion assay, transgenic C. elegans expressing receptor in ASH neuron
Conditions: agonist; 100 mM in plate ring; whole transgenic worms, gar-3(gk305) knockout background; N2 and knockout as controls; also pharyngeal pumping and dye-uptake assays

T1 sequence (A0A4E9FL79 entry or part of it): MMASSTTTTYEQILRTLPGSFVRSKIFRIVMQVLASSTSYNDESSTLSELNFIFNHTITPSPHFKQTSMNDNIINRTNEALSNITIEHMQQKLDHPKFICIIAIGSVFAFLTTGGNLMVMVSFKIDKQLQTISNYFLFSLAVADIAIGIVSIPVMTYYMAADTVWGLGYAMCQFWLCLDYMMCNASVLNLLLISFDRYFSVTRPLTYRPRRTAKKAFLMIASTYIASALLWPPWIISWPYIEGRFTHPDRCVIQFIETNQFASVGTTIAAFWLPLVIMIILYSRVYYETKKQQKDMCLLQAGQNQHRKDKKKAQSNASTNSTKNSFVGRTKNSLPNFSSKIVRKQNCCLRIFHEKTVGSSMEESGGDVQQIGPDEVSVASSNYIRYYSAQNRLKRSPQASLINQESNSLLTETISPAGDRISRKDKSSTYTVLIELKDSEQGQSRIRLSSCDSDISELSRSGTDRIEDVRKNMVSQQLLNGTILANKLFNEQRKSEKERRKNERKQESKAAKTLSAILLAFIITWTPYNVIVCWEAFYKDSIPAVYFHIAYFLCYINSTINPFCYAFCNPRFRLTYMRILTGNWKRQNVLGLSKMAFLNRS

Question: With C[N+](C)(C)CC#CCN1CCCC1=O [OXO, oxotremorine M] as the molecule, how does the “ring aversion assay, transgenic C. elegans expressing receptor in ASH neuron” value read?
Answer: this receptor is activated by acetylcholine and oxotremorine M

Reference: article PMC9872666, “Pharmacological Profiling of a Brugia malayi Muscarinic Acetylcholine Receptor as a Putative Antiparasitic Target” (Antimicrobial Agents and Chemotherapy, 2023)
